Values quoted from earlier work as cited in patent publication US20230172202A1, “INSECT AND NON-INSECT ARTHROPOD PEST REPELLENT COMPOSITIONS AND METHODS” (Livful Inc., priority 2021, published 2023).

Assays:
[1] = test system: mosquitos; details: 25% active ingredient (IR3535 in ethanol); human subjects, field
[2] = according to the manufacturer (Merck KGaA)

SMILES	mean complete protection time (mean CPT) [1]	ideal pH for IR3535 [2]
CCN(CC)C(=O)c1cccc(C)c1 [DEET, N,N-diethyl-m-toluamide]	5.6 h	
CCCCN(CCC(=O)OCC)C(C)=O [IR3535®, ethyl butylacetylaminopropionate]	3.0 h	6.0-6.5
